Experimental data from patent US4001280A, “Chromone derivatives” (Fujisawa Pharmaceutical Co., Ltd., priority 1972, dated 1977).

System: Hyperimmune antiserum
Experiment: Anti-allergic test in sensitized rats: percent inhibition of skin dye leakage (blue spot) for hyperimmune antiserum
Format: in vivo, Sprague-Dawley JCL strain rats
Conditions: p.o.
Method: Five male Sprague-Dawley JCL strain rates weighing 290-310g. were used for each dose. The animals were sensitized by intracutaneous injection of 0.1ml. of 5 times diluted reagin-like rat antiserum at 48 hours before egg albumin at their depilated backs and were injected 0.1ml. of 4 times diluted hyperimmune rat antiserum at 4 hours before. One ml. of mixture of egg albumin 5 mg. and Evans blue 5 mg. was injected intravenously. Immediately before 0.1ml. of 0.2% histamine solution was injected intracutaneously.
One hour after the injection of the antigen and dye, animals were sacrificed and the skin of the back was removed. The dye of blue spot was then extracted from the skin. The blue spot areas of the skin were punched out and were cut with clipper into small pieces. The small pieces per one blue spot were blended with 10 ml. of a 4:1 mixture of acetone and 2% solution of RBS-25 (Marumoto industrial Co., Ltd.) and rested for 16 hours. Five and 16 hours after, it was shaked for 30 minutes respectively. After centrifugation at 2000 rpm for 15 minutes, the optical density of the supernatant was determined at 620 mμ.
[…] The mean amount of dye of the test animals was compared with that of the control animals. The percent inhibition for each dose was calculated.

## CN1CCN(C(=O)c2cc(=O)c3c(OCCOc4ccccc4)cccc3o2)CC1
Pretreatment 30 min., dose 125 mg./kg.
  inhibition % for Hyperimmune antiserum: 48.2%
Pretreatment 30 min., dose 250 mg./kg.
  inhibition % for Hyperimmune antiserum: 66.7%
Pretreatment 60 min., dose 250 mg./kg.
  inhibition % for Hyperimmune antiserum: 45.8%
Pretreatment 60 min., dose 500 mg./kg.
  inhibition % for Hyperimmune antiserum: 46.5%
Pretreatment 120 min., dose 125 mg./kg.
  inhibition % for Hyperimmune antiserum: 37.6%
Pretreatment 120 min., dose 250 mg./kg.
  inhibition % for Hyperimmune antiserum: 40.6%
Pretreatment 120 min., dose 500 mg./kg.
  inhibition % for Hyperimmune antiserum: 67.7%
